Laboratory results from patent US20210145827A1, “ANTIBIOTIC GEL FORMULATION AND METHODS OF PREPARING THE ANTIBIOTIC GEL FORMULATION” (Indiana University Research and Technology Corporation, priority 2015, published 2021).

How the values were obtained:
[1] = system: three-week old E. faecalis biofilm; test: biofilm disruption assay on infected dentin samples (Example 2); format: cell-based, E. faecalis (ATCC 29212); conditions: immersion 5 minutes
Protocol: Unidentified intact human teeth were collected, stored in 0.1% thymol solution at 4° C., and used within 6 months after obtaining local Institutional Review Board approval (IRB #1409251353). A standardized radicular dentin sample (4×4×1 mm^3) was obtained from each root using a slow diamond saw (IsoMet, Buehler, Lake Bluff, Ill.) under continuous distilled water irrigation. The pulpal side of each specimen was wet-finished with silicon carbide abrasive papers (500-2400 grit, Struers, Cleveland, Ohio). The polished samples were then sonicated in deionized water for 3 minutes, washed with sterile water, wrapped individually with moist cotton pellets, placed in Whirl-pak bags (Sigma-Aldrich, St Louis, Mo.), gas sterilized with ethylene oxide, and stored at 4° C. until used. E. faecalis (ATCC 29212) was grown initially on anaerobic blood agar plates (CDC, BioMerieux, Durham, N.C.). Colonies of E. faecalis were then suspended in brain-heart infusion (BHI) broth supplemented with 5 grams yeast extract/L (BHI-YE) and incubated for 24 hours at 37° C. with 5% CO2. Dentin samples were placed individually in separate wells of a 96-sterile well plate (Fisherbrand, Fischer Scientific) with the pulpal side facing upwards. […] The CFUs/mL were quantified using an automated colony counter (Synbiosis, Inc., Frederick, Md.). Summary statistics were calculated for the log-transformed data from each group. […]

[2] = system: stem cells from apical papillae and dental pulp stem cells; conditions: 2% CHX; in vitro studies; cited from earlier work

| Structure (SMILES) | antibiofilm effect (log CFU/mL) ([1]; 1.5% NaOCl) | effect on survival and attachment of stem cells from apical and dental pulp [2] | antibiofilm effect (log CFU/mL) ([1]; 2% CHX, versus control groups, not complete eradication) |
| --- | --- | --- | --- |
| OCl [NaOCl, sodium hypochlorite] | complete eradication | – | – |
| N=C(NCCCCCCNC(=N)NC(=N)Nc1ccc(Cl)cc1)NC(=N)Nc1ccc(Cl)cc1 [CHX] | – | highly unfavorable effects | significant reduction in E. faecalis biofilm |
